According to US9403832B2, “Pyrazolo[1,5-a]pyrimidine-based compounds, compositions comprising them, and methods of their use” (Lexicon Pharmaceuticals, Inc., priority 2012, dated 2016):

Target: T1, AAK1 (Homo sapiens, UniProt Q2M2I8)
T1 construct: NP_055726.2
Experiment: P81 filter plate assay
Format: biochemical
Conditions: full-length human AAK1, Mu2 substrate, 33P-ATP
Description: Compounds were serially diluted into a Labcyte LDV plate (Labcyte, cat#LP-0200) using a Mutiprobe (PerkinElmer) and Biomek FX (Beckman Coulter) so that the highest compound concentration was at 96 μM. Compounds were then pinged (75 nL per well) into a Greiner 384-well reaction plate (Greiner, #781076) using an ECHO 550 Liquid Handler (Labcyte). A total of 12 μl reaction buffer (IMAP buffer containing Tween and DTT, from Molecular Devices) was then added to each well of columns 1 and 13 for the negative controls and 12 μl of 2× AAK1 (0.2 nM full-length human protein, NCBI accession no. NP_055726.2) was added to the remaining wells. Enzyme was then pre-incubated with compound for 10 minutes at RT. Reactions were initiated upon Minitrak (PerkinElmer) addition of 12 μl substrate mix containing 2× Mu2 (0.2 μM, full length human protein), 2× cold ATP (2 μM), and 1.3 μCi of hot ^33P-ATP. […] proceeded for one hour at RT. Meanwhile, Millipore 384-well P81 filter plates (Millipore, catalog #MZPHNOW10) were placed on a plate washer (Zoom ZW, from Titertek) and pre-wet with 50 μl 1% phosphoric acid. Kinase reactions were then stopped upon addition of 24 μl of 2% phosphoric acid to each well and the Minitrak was then used to transfer 40 μl from each well into the pre-wet Millipore 384-well P81 filter plates. Reaction mixtures were incubated for 10 minutes at RT in the P81 plates, followed by washing five times with 100 μl/well of 1% phosphoric acid using the Zoom filter washer. The bottom of each filter plate was sealed followed by addition of 20 μl Microscint 40 to each well, sealing the top of the plates with Flashplate cover, and then waiting one hour until reading on the TopCount (PerkinElmer).

T1 sequence (Q2M2I8 1-863 isoform Q2M2I8-2): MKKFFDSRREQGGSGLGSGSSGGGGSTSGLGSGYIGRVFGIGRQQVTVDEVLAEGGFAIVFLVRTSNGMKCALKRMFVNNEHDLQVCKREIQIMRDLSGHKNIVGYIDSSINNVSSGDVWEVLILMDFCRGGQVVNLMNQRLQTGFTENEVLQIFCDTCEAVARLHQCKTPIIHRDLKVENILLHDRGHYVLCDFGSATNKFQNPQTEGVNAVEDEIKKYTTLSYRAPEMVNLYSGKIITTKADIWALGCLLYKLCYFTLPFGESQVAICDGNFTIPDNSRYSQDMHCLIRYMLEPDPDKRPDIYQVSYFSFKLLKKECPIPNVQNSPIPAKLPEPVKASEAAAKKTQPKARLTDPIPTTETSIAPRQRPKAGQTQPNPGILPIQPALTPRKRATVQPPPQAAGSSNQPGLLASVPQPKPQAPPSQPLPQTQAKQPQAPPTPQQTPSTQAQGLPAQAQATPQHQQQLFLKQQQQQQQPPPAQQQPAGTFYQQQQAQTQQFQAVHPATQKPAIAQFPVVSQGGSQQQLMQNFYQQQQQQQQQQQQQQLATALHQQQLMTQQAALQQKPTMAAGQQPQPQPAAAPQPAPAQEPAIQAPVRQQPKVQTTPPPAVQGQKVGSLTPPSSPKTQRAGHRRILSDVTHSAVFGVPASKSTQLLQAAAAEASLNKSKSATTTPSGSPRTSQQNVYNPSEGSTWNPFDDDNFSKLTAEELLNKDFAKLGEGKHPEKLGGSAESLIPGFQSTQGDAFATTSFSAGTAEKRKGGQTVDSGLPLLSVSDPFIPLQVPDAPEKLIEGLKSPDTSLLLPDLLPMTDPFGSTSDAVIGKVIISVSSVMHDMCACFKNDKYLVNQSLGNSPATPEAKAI

FC(F)(F)CN1CCN(c2ccn3ncc(Br)c3n2)CC1 [3-bromo-5-(4-(2,2,2-trifluoroethyl)piperazin-1-yl)pyrazolo[1,5-a]pyrimidine]
IC50: ≤ 100 nM

COc1ncccc1-c1cnn2ccc(N3CCN(C(=O)OCCOC(C)(C)C)CC3)nc12 [2-(tert-butoxy)ethyl 4-(3-(2-methoxypyridin-3-yl)pyrazolo[1,5-a]pyrimidin-5-yl)piperazine-1-carboxylate]
IC50: ≤ 10 nM

COc1nc(C)ccc1-c1cnn2ccc(N(C)CCN(C)C(=O)OC(C)C)nc12 [isopropyl (2-((3-(2-methoxy-6-methylpyridin-3-yl)pyrazolo[1,5-a]pyrimidin-5-yl)(methyl)amino)ethyl)(methyl)carbamate]
IC50: ≤ 100 nM

CC(C)OC(=O)N1CCN(c2ccn3ncc(-c4cncc(F)c4)c3n2)CC1 [isopropyl 4-(3-(5-fluoropyridin-3-yl)pyrazolo[1,5-a]pyrimidin-5-yl)piperazine-1-carboxylate]
IC50: ≤ 10 nM

COc1ncccc1-c1cnn2ccc(N3CCN(C(=O)[C@@H]4COCCN4)CC3)nc12 [(S)-(4-(3-(2-methoxypyridin-3-yl)pyrazolo[1,5-a]pyrimidin-5-yl)piperazin-1-yl)(morpholin-3-yl)methanone]
IC50: ≤ 10 nM

CC(C)C[C@H](N)C(=O)N1CCN(c2ccn3ncc(F)c3n2)CC1 [(S)-2-amino-1-(4-(3-fluoropyrazolo[1,5-a]pyrimidin-5-yl)piperazin-1-yl)-4-methylpentan-1-one]
IC50: ≤ 1000 nM

CC(C)C[C@H](N)C(=O)N1CCN(c2ccn3ncc(Br)c3n2)CC1 [(S)-2-amino-1-(4-(3-bromopyrazolo[1,5-a]pyrimidin-5-yl)piperazin-1-yl)-4-methylpentan-1-one]
IC50: ≤ 100 nM

COc1ncccc1-c1cnn2ccc(N3CCN(C(=O)C(C)(C)N)CC3)nc12 [2-amino-1-(4-(3-(2-methoxypyridin-3-yl)pyrazolo[1,5-a]pyrimidin-5-yl)piperazin-1-yl)-2-methylpropan-1-one]
IC50: ≤ 100 nM

COc1nc(C)ccc1-c1cnn2ccc(N(C)CCCOC(C)(C)C)nc12 [N-(3-(tert-butoxy)propyl)-3-(2-methoxy-6-methylpyridin-3-yl)-N-methylpyrazolo[1,5-a]pyrimidin-5-amine]
IC50: ≤ 100 nM

Cc1ccc(-c2cnn3ccc(N4CCN(C(=O)OC(C)C)CC4)nc23)cc1F [isopropyl 4-(3-(3-fluoro-4-methylphenyl)pyrazolo[1,5-a]pyrimidin-5-yl)piperazine-1-carboxylate]
IC50: ≤ 100 nM

COc1ncc(C)cc1-c1cnn2ccc(N(C)CCN(C)C(=O)OC(C)C)nc12 [isopropyl (2-((3-(2-methoxy-5-methylpyridin-3-yl)pyrazolo[1,5-a]pyrimidin-5-yl)(methyl)amino)ethyl)(methyl)carbamate]
IC50: ≤ 100 nM

CCOC(=O)N1CCN(c2ccn3ncc(-c4cc(F)ccc4OC)c3n2)CC1 [ethyl 4-(3-(5-fluoro-2-methoxyphenyl)pyrazolo[1,5-a]pyrimidin-5-yl)piperazine-1-carboxylate]
IC50: ≤ 10 nM

COc1ncc(F)cc1-c1cnn2ccc(N3CCN(CCC(F)(F)F)CC3)nc12 [3-(5-fluoro-2-methoxypyridin-3-yl)-5-(4-(3,3,3-trifluoropropyl)piperazin-1-yl)pyrazolo[1,5-a]pyrimidine]
IC50: ≤ 1000 nM

CCOc1ncccc1-c1cnn2ccc(N3CCN(C(=O)OCCOC)CC3)nc12 [2-methoxyethyl 4-(3-(2-ethoxypyridin-3-yl)pyrazolo[1,5-a]pyrimidin-5-yl)piperazine-1-carboxylate]
IC50: ≤ 10 nM

COc1nc(C)ccc1-c1cnn2ccc(NCCOC(C)(C)C)nc12 [N-(2-(tert-butoxy)ethyl)-3-(2-methoxy-6-methylpyridin-3-yl)pyrazolo[1,5-a]pyrimidin-5-amine]
IC50: ≤ 100 nM

CC(C)OC(=O)N1CCN(c2ccn3ncc(-c4cccnc4OCCN(C)C)c3n2)CC1 [isopropyl 4-(3-(2-(2-(dimethylamino)ethoxy)pyridin-3-yl)pyrazolo[1,5-a]pyrimidin-5-yl)piperazine-1-carboxylate]
IC50: ≤ 100 nM

COCCCOC(=O)N1CCN(c2ccn3ncc(-c4cccnc4OC)c3n2)CC1 [3-methoxypropyl 4-(3-(2-methoxypyridin-3-yl)pyrazolo[1,5-a]pyrimidin-5-yl)piperazine-1-carboxylate]
IC50: ≤ 10 nM

CC(C)(C)OC(=O)N1CCC[C@H]1CNc1ccn2ncc(-c3ccc(C(N)=O)cc3)c2n1 [(S)-tert-butyl 2-(((3-(4-carbamoylphenyl)pyrazolo[1,5-a]pyrimidin-5-yl)amino)methyl)pyrrolidine-1-carboxylate]
IC50: ≤ 10 nM

COc1ncccc1-c1cnn2ccc(NCCNC(=O)OC(C)C)nc12 [isopropyl (2-((3-(2-methoxypyridin-3-yl)pyrazolo[1,5-a]pyrimidin-5-yl)amino)ethyl)carbamate]
IC50: ≤ 100 nM

COc1ccccc1-c1cnn2ccc(N3CCN(C(=O)OC(C)C)CC3)nc12 [isopropyl 4-(3-(2-methoxyphenyl)pyrazolo[1,5-a]pyrimidin-5-yl)piperazine-1-carboxylate]
IC50: ≤ 10 nM

CCOCCOC(=O)N1CCN(c2ccn3ncc(-c4cccnc4OC)c3n2)CC1 [2-ethoxyethyl 4-(3-(2-methoxypyridin-3-yl)pyrazolo[1,5-a]pyrimidin-5-yl)piperazine-1-carboxylate]
IC50: ≤ 100 nM

COc1nc(C)ccc1-c1cnn2ccc(NCCCOC(C)(C)C)nc12 [N-(3-(tert-butoxy)propyl)-3-(2-methoxy-6-methylpyridin-3-yl)pyrazolo[1,5-a]pyrimidin-5-amine]
IC50: ≤ 10 nM

CCc1ccccc1-c1cnn2ccc(NC[C@@H]3CCCN3C(=O)OC(C)(C)C)nc12 [(S)-tert-butyl 2-(((3-(2-ethylphenyl)pyrazolo[1,5-a]pyrimidin-5-yl)amino)methyl)pyrrolidine-1-carboxylate]
IC50: ≤ 10 nM

CC(C)(C)OC(=O)N1CCC[C@H]1CNc1ccn2ncc(C(F)(F)F)c2n1 [(S)-tert-butyl 2-(((3-(trifluoromethyl)pyrazolo[1,5-a]pyrimidin-5-yl)amino)methyl)pyrrolidine-1-carboxylate]
IC50: ≤ 10 nM

COc1ncccc1-c1cnn2ccc(N(C)CCN(C)C(=O)[C@@H](N)CC(C)C)nc12 [(S)-2-amino-N-(2-((3-(2-methoxypyridin-3-yl)pyrazolo[1,5-a]pyrimidin-5-yl)(methyl)amino)ethyl)-N,4-dimethylpentanamide]
IC50: ≤ 10 nM

CSc1ncccc1-c1cnn2ccc(N3CCN(C(=O)OC(C)C)CC3)nc12 [isopropyl 4-(3-(2-(methylthio)pyridin-3-yl)pyrazolo[1,5-a]pyrimidin-5-yl)piperazine-1-carboxylate]
IC50: ≤ 100 nM

COCCOc1ncccc1-c1cnn2ccc(N3CCN(C(=O)OC(C)C)CC3)nc12 [isopropyl 4-(3-(2-(2-methoxyethoxy)pyridin-3-yl)pyrazolo[1,5-a]pyrimidin-5-yl)piperazine-1-carboxylate]
IC50: ≤ 100 nM

COc1ncccc1-c1cnn2ccc(-n3cnc(CO)c3)nc12 [(1-(3-(2-methoxypyridin-3-yl)pyrazolo[1,5-a]pyrimidin-5-yl)-1H-imidazol-4-yl)methanol]
IC50: ≤ 100 nM

[2H]C1([2H])N(C(=O)OC(C)C)C([2H])([2H])C([2H])([2H])N(c2ccn3ncc(Br)c3n2)C1([2H])[2H] [isopropyl 4-(3-bromopyrazolo[1,5-a]pyrimidin-5-yl)-d8-piperazine-1-carboxylate]
IC50: ≤ 100 nM

COc1ncc(C)cc1-c1cnn2ccc(N3CC[C@H](N(C)C(=O)OC(C)C)C3)nc12 [(S)-isopropyl (1-(3-(2-methoxy-5-methylpyridin-3-yl)pyrazolo[1,5-a]pyrimidin-5-yl)pyrrolidin-3-yl)(methyl)carbamate]
IC50: ≤ 10 nM

CN(C(=O)OC(C)(C)C)[C@H]1CCN(c2ccn3ncc(-c4ccccn4)c3n2)C1 [(S)-tert-butyl methyl(1-(3-(pyridin-2-yl)pyrazolo[1,5-a]pyrimidin-5-yl)pyrrolidin-3-yl)carbamate]
IC50: ≤ 1000 nM

CC(C)OC(=O)N1CCC[C@H]1CN(C)c1ccn2nccc2n1 [(S)-isopropyl 2-((methyl(pyrazolo[1,5-a]pyrimidin-5-yl)amino)methyl)pyrrolidine-1-carboxylate]
IC50: ≤ 1000 nM

COC(=O)COC(=O)N1CCN(c2ccn3ncc(-c4cccnc4OC)c3n2)CC1 [2-methoxy-2-oxoethyl 4-(3-(2-methoxypyridin-3-yl)pyrazolo[1,5-a]pyrimidin-5-yl)piperazine-1-carboxylate]
IC50: ≤ 100 nM

COc1ncccc1-c1cnn2ccc(N3CCN(c4noc(C(C)C)n4)CC3)nc12 [5-isopropyl-3-(4-(3-(2-methoxypyridin-3-yl)pyrazolo[1,5-a]pyrimidin-5-yl)piperazin-1-yl)-1,2,4-oxadiazole]
IC50: ≤ 100 nM

COCCOCCOC(=O)N1CCN(c2ccn3ncc(-c4cccnc4OC)c3n2)CC1 [2-(2-methoxyethoxy)ethyl 4-(3-(2-methoxypyridin-3-yl)pyrazolo[1,5-a]pyrimidin-5-yl)piperazine-1-carboxylate]
IC50: ≤ 100 nM

COc1ncc(F)cc1-c1cnn2ccc(N3CCN(CC(F)(F)F)CC3)nc12 [3-(5-fluoro-2-methoxypyridin-3-yl)-5-(4-(2,2,2-trifluoroethyl)piperazin-1-yl)pyrazolo[1,5-a]pyrimidine]
IC50: ≤ 1000 nM
